US9956199B2, “Chromane-like cyclic prenylflavonoids for the medical intervention in neurological disorders” (priority 2011, dated 2018)
Entries after “also recorded” stand apart in the source; their conditions may differ.

How the values were obtained:
MEF E16 cells = assay: immunocytochemical staining for DCX and Map2ab in MEF cultures (neuronal differentiation); type: cell-based, mouse; conditions: Neurobasal plus 1% FCS, 10 μM, 7 days; for number of DCX/Map2ab double positive cells: FIG. 3B
Procedure: Following the results from the Luciferase assay described in Example 17, the inventors examined the ability of compounds according to the invention and reference compounds to promote differentiation of MEF E16 cells, using immunocytochemical staining with DCX and Map2ab antibodies.
Compound 1a at 10 and 100 μM was analyzed for its effect on the expression of the neuronal specific markers DCX and Map2ab using primary fetal mouse brain derived cells stimulated in DMEM-KO media.
Mouse embryonic day 16 forebrain cells were prepared as described in Example 17. Before seeding the cells, glass-coverslips were coated and prepared. Glass-coverslips (13 mm) (Menzel GmbH, Braunschweig, Germany) were incubated in 1 M HCl at 65° C. overnight and stored in isopropanol until further use. Coverslips were put into 24-well test plates and air-dried. Subsequently coverslips were incubated for 1 h with 100 μg/ml Poly-L-ornithin solution at 37° C. After washing three times with sterile water coverslips were incubated with 5 μg/ml Laminin solution for 2 h. Immediately after removal of the Laminin solution cells were seeded (40.000 cells/well) in DMEM-KO plus supplement or in NB-B27 plus 1% FCS medium. One day later, cells had attached to the substrate. Cells were stimulated with the above-mentioned substances (in DMEM-KO plus supplement medium: 10 μM and 100 μM; in NB-B27 plus 1% FCS medium: 10 μM) for 3 or 7 days. In the 7 day group, medium including the substances was replaced after three days. Cultures were maintained at 37° C. in a humidified incubator with 5% CO2.
Cells were fixed with phosphate-buffered 4% paraformaldehyde (Sigma-Aldrich, Taufkirchen, Germany). […] The specimens were incubated overnight at 4° C. with the primary antibodies at the following dilutions in FSGB: rabbit anti Doublecortin (DCX) 1:500 (NEB, Frankfurt, Germany) and mouse anti-Map 2a+2b 1:400 (Sigma-Aldrich, Taufkirchen, Germany). After washing three times with FSGB, cells were incubated with the species-specific secondary antibodies, which were conjugated to fluorochromes, for 2 hours in the dark at room temperature. To remove unbound secondary antibodies, cells were washed again with PBS. Nuclear counterstaining was performed with 4′,6′-diamidino-2-phenylindole dihydrochloride hydrate (DAPI) at […] (Sigma Aldrich, Taufkirchen, Germany). Finally, cells were washed again three times with PBS and mounted on microscope slides using Prolong Antifade reagent (Invitrogen, Oreg., USA).
The immunostainings were examined using Olympus IX81 inverted research microscope and the software Volocity 5.3.1. To quantify the number of cells, five indiscriminately chosen visual fields per coverslip were selected under a focus of 40 times. The total number of cells (DAPI positive cells), the number of DCX positive, Map2ab positive, and DCX/Map2ab double positive cells was determined.

[1] = tested on: promoter of the neuronal precursor specific gene doublecortin (DCX); assay: DCX promoter firefly-luciferase assay in primary fetal mouse brain derived (MEF) cells; type: cell-based; conditions: for stimulatory effect on the DCX promoter activity (FF/R relative to control): DCX promoter-luciferase transfected MEF cells, stimulated three days; for effect on DCX promoter induction: 10 μM, MEF cells, three days
Procedure: Primary mouse embryonic day 16 forebrain (MEF) cultures were prepared as follows. Pregnant NMRI mice (Charles River Laboratories, Sulzfeld, Germany) were sacrificed and the uteri promptly removed and immersed in ice-cold Dulbecco's phosphate buffered saline solution—DPBS (PAA, Pasching, Austria). Eight embryonic day (E) 16 embryos were released from the uteri; forebrains were taken out, separated from surrounding tissues and mechanically dissociated using a razor blade. Subsequently the dissociated cells were collected by 5 min centrifugation at 120×g. The pellet was resuspended in 10 ml PPD-solution containing 0.01% papain (Worthington, England), 0.1% Dispasell (Roche, Basel, Switzerland), 0.01% DNasel (Worthington, England), 12.4 mM MgSO4 dissolved in HBSS w/o Ca/Mg (PAA, Pasching, Austria). The cell suspension was incubated at 37° C. and triturated every ten minutes for three times. The cell suspension was then centrifuged at 120×g for 5 minutes and washed three times in Neurobasal medium (Gibco BRL, Germany) supplemented with 2% (v/v) B27 (Gibco BRL, Karlsruhe), 2 mM L-glutamine, 100 μg/ml Penicillin/Streptomycin (PAN Biotech GmbH, Aidenbach, Germany). Finally, the cell preparation was resuspended in 12 ml Neurobasal medium supplemented with B27 (Gibco BRL, Karlsruhe), 2 mM L-glutamine, 100 μg/ml Penicillin/Streptomycin (PAN Biotech GmbH, Aidenbach, Germany), 20 ng/ml Epidermal Growth Factor—rhEGF, 20 ng/ml Fibroblast Growth Factor—rhFGF (R&D Systems, Wiesbaden-Nordenstadt, Germany) and 2 μg/ml Heparin (Sigma-Aldrich, Taufkirchen, Germany) (NB plus all), seeded in one T75 flask (TPP, Switzerland) and maintained in a humidified atmosphere at 37° C. and 5% CO2. […] On this day (day 2), half of the medium was refreshed and on day 4 cells were passaged. To passage the cells, the culture medium containing the floating neurospheres was collected in a 15 ml tube (Corning, Lowell, USA) and centrifuged at 120×g for 5 min. For dissociation, the pellet was resuspended in 500 μl Accutase (PAA, Pasching, Austria) and triturated using a 1 ml pipette. The cell suspension was incubated at 37° C. for 10 min, and then, 10 ml media were added. Cell number was determined by Trypan blue exclusion.
Luciferase assays were performed using a noncommercial dual luciferase enzyme assay system (Dyer et al., 2000, Anal Biochem). In this system, a co-transfection with pDCX-Luci and a control vector driving Renilla-luciferase under the CMV promoter was performed. The two different luciferases have different specific substrates and, therefore, the DCX regulatory region driven firefly luciferase activity can be distinguished from CMV driven Renilla-luciferase. For analysis, the firefly luciferase activity was normalized against the CMV driven Renilla-luciferase. For each transfection reaction, a volume containing two million cells was transferred into a 15 ml tube (Corning, Lowell, USA), centrifuged at 120×g for 5 min to pellet the cells and resuspended in 100 μl Amaxa Mouse Neural Stem Cell Nucleofector Kit (Lonza, Kln, Germany). Then, pDCX-Luci (Karl, 2005) and pRL3 (Promega, Mannheim, Germany) (5 μg each) were added and the entire reaction mix was transferred into an Amaxa transfection cuvette. Transfection was done using the A-033 program in the Amaxa Nucleofector II (Lonza, Kln, Germany). Transfected cells were then pipetted into 20 ml of DMEM knockout medium (Gibco BRL, Germany) containing 20% serum replacement supplement (PAN Biotech GmbH, Aidenbach, Germany), 2 mM L-glutamine (PAN Biotech GmbH, Aidenbach, Germany) and 100 μg/ml Penicillin/Streptomycin (PAN Biotech GmbH, Aidenbach, Germany) (DMEM-KO plus supplements) in a 50 ml tube (Corning, Lowell, USA). From this resulting cell suspension, 200 μl per well were plated in Poly-Ornithine/Laminin coated 96-well-luciferase plates (Wimmer & Macho, Wels, Austria) in a cell density of 20.000 cells per well, as described herein below.

Cc1c(C)c2c(c(C)c1O)CCC(C)(CCCC(C)CCCC(C)CCCC(C)C)O2 (racemic) [tocopherol, 2,5,7,8-tetramethyl-2-(4,8,12 trimethyltridecyl)chroman-6-ol]
number of DCX/Map2ab double positive cells (MEF E16 cells): marginally increase

CC(C)=CCc1c(O)cc2c(c1O)C(=O)CC(c1ccc(O)cc1)O2 (centres unmarked) [6-prenylnaringenin, 5,7-dihydroxy-2-(4-hydroxyphenyl)-6-(3-methylbut2-en-1yl)chroman-4-one]
number of DCX/Map2ab double positive cells (MEF E16 cells): Good results

CC(C)=CCc1c(O)cc(O)c2c1OC(c1ccc(O)cc1)CC2=O (centres unmarked) [8-prenylnaringenin, 5,7-dihydroxy-2-(4-hydroxyphenyl)-8-(3-methylbut2-en-1yl)chroman-4-one]
number of DCX/Map2ab double positive cells (MEF E16 cells): Good results

COc1cc2c(c(O)c1C(=O)CCc1ccc(O)cc1)CCC(C)(C)O2 [Compound 1c, 1-(5-hydroxy-7-methoxy-2,2-dimethylchroman-6-yl)-3-(4-hydroxyphenyl)propan-1-one]
stimulatory effect on the DCX promoter activity (FF/R relative to control) [1]: significantly and strongly induce; also recorded: very strong and significant stimulatory effect

COc1cc2c(c(O)c1C(=O)/C=C/c1ccc(O)c(O)c1)C=CC(C)(C)O2 [Compound 1e, (2E)-1-(5-Hydroxy-7-methoxy-2,2-dimethyl-2H-chromen-6-yl)-3-(3,4-dihydroxyphenyl)prop-2-en-1-one]
stimulatory effect on the DCX promoter activity (FF/R relative to control) [1]: significantly and strongly induce; also recorded: very strong and significant stimulatory effect

COc1cc2c(c(O)c1C(=O)/C=C/c1ccc3c(c1)OCO3)C=CC(C)(C)O2 [Compound 1f, (2E)-3-(benzo[d][1,3]dioxol-6-yl)-1-(5-hydroxy-7-methoxy-2,2-dimethyl-2H-chromen-6-yl)prop-2-en-1-one]
stimulatory effect on the DCX promoter activity (FF/R relative to control) [1]: significantly and strongly induce; also recorded: very strong and significant stimulatory effect

COc1cc2c(c(O)c1C(=O)/C=C/c1ccc(O)cc1)C=CC(C)(CCC=C(C)C)O2 (centres unmarked) [Compound 1g, (2E)-1-(5-hydroxy-7-methoxy-2-methyl-2-(4-methylpent-3-enyl)-2H-chromen-6-yl)-3-(4-hydroxyphenyl)prop-2-en-1-one]
effect on DCX promoter induction [1]: good results

CC1(C)C=Cc2c(cc3c(c2O)C(=O)CC(c2ccc(O)cc2)O3)O1 (centres unmarked) [Compound 2a, 5-Hydroxy-2-(4-hydroxy-phenyl)-8,8-dimethyl-2,3-dihydro-8H-pyrano[3,2-g]chromen-4-one]
effect on DCX promoter induction [1]: good results
stimulatory effect on the DCX promoter activity (FF/R relative to control) [1]: stimulatory effect on the DCX promoter activity was also observed

CC1(C)C=Cc2c(cc(O)c3c2OC(c2ccc(O)cc2)CC3=O)O1 (centres unmarked) [Compound 3b, 5-Hydroxy-2-(4-hydroxy-phenyl)-8,8-dimethyl-2,3-dihydro-8H-pyrano[2,3-f]chromen-4-one]
effect on DCX promoter induction [1]: good results

COc1cc2c(c(O)c1C(C)=O)C=CC(C)(C)O2 [ENDF4, 1-(5-hydroxy-7-methoxy-2,2-dimethyl-2H-chromen-6-yl)-ethanone]
stimulatory effect on the DCX promoter activity (FF/R relative to control) [1]: did not have any significant stimulatory effect
number of DCX positive cells (MEF E16 cells; FIG. 3A): strongly enhanced the number of DCX positive cells
number of DCX/Map2ab double positive cells (MEF E16 cells): Good results; also recorded: increased slightly more

Cc1c(C)c2c(c(C)c1O)CCC(C)(C)O2 [chromanol, 2,2,5,7,8-Pentamethyl-6-chromanol, reference compound]
stimulatory effect on the DCX promoter activity (FF/R relative to control) [1]: did not have any significant stimulatory effect
number of DCX/Map2ab double positive cells (MEF E16 cells): marginally increase

COc1cc(O)c(CC=C(C)C)c2c1C(=O)CC(c1ccc(O)cc1)O2 (centres unmarked) [isoxanthohumol, 7-hydroxy-2-(4-hydroxyphenyl)-5-methoxy-8-(3-methylbut-2-en-1-yl)chroman-4-one, reference compound]
stimulatory effect on the DCX promoter activity (FF/R relative to control) [1]: did not have any significant stimulatory effect
number of DCX/Map2ab double positive cells (MEF E16 cells): Good results
